For one experiment, the system named is bacteria. Briefly: Bacterial detection in stored platelet concentrate with SLP reagent, time of color detection (TOCD). It is filed as cell-based. Conditions: for time of color detection (TOCD): 1 mM DANA. Here is the method:
To increase the formation of planktonic bacteria, thereby improving the sensitivity of the bacterial detection, platelet storage studies were performed in a mixture of PAS (INTERSOL® solution) and plasma (80:20). Many bacterial detection methods are available. We used SLP Reagent Set (297-51501, Wako Chemicals USA), containing silkworm larvae plasma (SLP) and […] (DOPA), reconstituted according to manufacturer's instruction and stored as 100 μL aliquots at -80° C. When a sample is mixed with SLP reagent, peptidoglycan derived from the cell wall of Gram-positive and Gram-negative bacteria in the sample initiates a series of reactions including activation of multiple serine proteases called prophenoloxidase (proPO) cascade. The phenoloxidase (PO) produced in the cascade reactions oxidizes the substrate in the SLP reagent, […] (DOPA), to form melain (dark blue). The bacteria concentration in the test sample is inversely proportional to the onset time of color development: shorter time=higher concentration of bacteria; longer time=lower concentration of bacteria.
One bag of a platelet concentrate was split to two 50-mL Falcon tubes, PGE1 was added. After centrifugation at 900×g for 10 min, 80% of the supernatant (PPP) (relative to the total volume) was removed, and replaced with equal volume of platelet protection solution. The platelet was thoroughly re-suspended. The platelet suspensions were pooled and split to 4 aliquots in 15-mL Falcon tubes. DANA (1 mM) in PBS was added to two tubes while only PBS was added to the other tubes. One pair of samples with and without DANA was stored at 4° C. The second pair was kept at RT (22° C.-24° C.). Aliquots of 1.0 mL were removed on Day 0 and Day 9, and immediately pelleted (5 min, 15,800×g). […]
The pellet containing both platelets and bacteria, recovered from 1-mL aliquots sampled at different time points, was re-suspended in 100 μL of 0.1 M NaOH, and heated for 10 min at 70° C. […] The samples were left on the bench, and color development was monitored. The time of color detection (TOCD) was recorded.

In another experiment the test system is mouse platelets. Briefly: Mouse platelets stored at RT for 48 h with different concentrations of DANA, counted by flow cytometry. Conditions: 0.1 mM DANA, 48 h at RT. It is filed as cell-based. Here is the method: Mouse platelets were isolated as described in Example 3, re-suspended in platelet resuspension buffer and split to four aliquots. […] The samples were incubated for 30 min at 37° C., centrifuged and supernatants removed. The platelets re-suspended in plasma. DANA and glucose were restored to their initial concentrations. The platelet suspensions were stored at RT. After 48 h, platelets under each storage condition were counted by flow cytometry.

The structures appear in SMILES notation.

On to `CC(=O)NC1C(O)C=C(C(=O)O)OC1C(O)C(O)CO` (centres unmarked) [DANA], for which, in the experiment on bacteria (DANA, compared with 4° C. storage), the “bacterial growth in RT stored platelet samples” value was “inhibits bacterial growth as effectively as 4° C.-storage”. The “time of color detection (TOCD)” value was approximately 50 min with bacteria (Day 9, stored at 4° C.) and approximately 34 min in the experiment with bacteria (Day 9, stored at RT, INTERSOL/plasma 80:20 (15 min without DANA)). The platelets recovered entry in the experiment with mouse platelets (8 mM glucose, vs 0 mM DANA) is reported as “approximately 5 fold”. In addition, in the experiment with mouse platelets, the “size and density of platelets by dot plot analysis” value was “efficiently preserved the size and density of platelets”.

The values above are taken from patent publication US9788539B2, “Platelet protection solution having beta-galactosidase and sialidase inhibitors” (Velico Medical, Inc., priority 2011, dated 2017).
